{"source": "paper PMC4026528", "about": "(PLoS ONE, 2014)", "key": {"[1]": {"system": "human mRNA in HT-1080 xenograft tumors", "assay": "Gene expression (qPCR) in HT-1080 xenograft tumors", "format": "in vivo, female Crl:CD-1 nude mice", "protocol": "RNA extraction and quantitative RT-PCR (qPCR) expression analysis was performed as described previously. Gene expression analysis was performed using the human housekeeping gene RPL13A. Primers for the hAXIN2, hCDC25A, hc-MYC, hFZD4, hDVL2, hCSNK1G and hVEGF-A were the following: [NT] Rv: [NT] Rv: [NT] Rv: [NT] Rv: [NT] Rv: [NT] Rv: [NT] Rv: [NT]. Female athymic nude mice (6 weeks old, Crl:CD-1 nude mice) were obtained from Charles River Italia (Calco, Italy). HT-1080 cells (6×10^∧6 cells) were resuspended in 200 μl of PBS 1X and injected subcutaneously in the right flank of the mice. Body weight and tumor measurements (using a digital caliper) were performed twice a week. […] SEN461 was formulated in 0.5% w/v Methocel in MilliQ water and administered PO by oral gavage twice a day at 30 mg/kg for seven consecutive days in a total of 15 animals (n = 5 for each time point). Control animals (n = 5) were administered with the vehicle for the same time period. On treatment day 19, the mice were euthanized under inhalant anesthesia with isoflurane and tumor and blood samples were collected at three different time points (1-4-8 h, n = 5 animals for each time point) after last treatment and subjected to gene expression analysis and compound quantification. All mice were maintained in a conventional-specific-pathogen-free facility according to the NIH guidelines using an approved Animal Care and Use Committee protocol. During all the experimental time period, mice were housed (5 animals/cage) in individually ventilated solid floor plastic cages (Sealsafe Plus GR500, Tecniplast-Gazzada (VA) - Italy) using as bedding the Sawdust SCOBIS UNO by […] (via Galileo […] Milanese, Milano, Italy). Cages were maintained at a temperature of 20-24°C and humidity of 40-70% (Siemens Desigo Apparatus ver. 4.1) with 70 air changes/hour in the cage (10-15 air changes/hour in the room). Animals were subjected to a 12-hour light/12-hour dark cycle and have free access to a standard pelleted commercial laboratory diet (Certified Rodent irradiated 4RF21- Mucedola, Italy) and to municipal tap water, purified by reverse osmosis and autoclaved. The study was conducted in compliance with Decreto Legislativo January 27, 1992, N. 116, Gazzetta Ufficiale N. 40 February 18, 1992, (Directive N. […]) concerning protection of animals used for scientific purposes. The project was authorized by the Italian Institute of Health (48/2009/B). The experimental protocol was […] approved by the Internal Ethical Committee."}, "HUVEC cells": {"system": "HUVEC cells", "assay": "Tube formation assay, HUVEC", "format": "cell-based", "conditions": "data not shown", "protocol": "(§1) Soft agar assay and analysis was carried out as previously described. For scratch assay, confluent monolayer of U2OS and HT-1080 cells were subjected to scratch using a sterile pipette tip. Wounded monolayers were washed to remove debris and incubated with SEN461 at different concentrations for 20 hours. After the incubation period, images were taken under an Axiovert 200M (Zeiss) microscope equipped with a CCD camera, and the gap width was measured using MetaMorph 6.3 software (Universal Imaging Corp.) to calculate the area covered by cells (pixels unit). The tube formation assay was performed using growth factor-reduced Matrigel from BD (BD Biosciences; San Jose, CA, USA). Matrigel was thawed overnight at 4°C and was diluted (1∶1) with phenol red-free DMEM without serum. 100 µl of the diluted matrigel was used to coat the wells of a 96 well plate and was allowed to polymerize for 2 hours at 37°C. After equilibrating the gel with the complete growth medium, 15×10^3 cells were seeded in each well and incubated for 20 hours. The tube formation was monitored under a phase contrast microscope (Axiovert 200, Zeiss) and imaged using MetaMorph system (Universal Imaging Corp)."}, "HT-1080 cells": {"system": "HT-1080 cells", "assay": "Scratch assay (motility), HT-1080", "format": "cell-based, human", "conditions": "HT-1080, 20 hours", "protocol": "as §1"}, "[2]": {"system": "Wnt target gene mRNA in U2OS cells", "assay": "Quantitative RT-PCR of Wnt target genes in U2OS", "format": "cell-based, human", "protocol": "(§2) RNA extraction and quantitative RT-PCR (qPCR) expression analysis was performed as described previously. Gene expression analysis was performed using the human housekeeping gene RPL13A. Primers for the hAXIN2, hCDC25A, hc-MYC, hFZD4, hDVL2, hCSNK1G and hVEGF-A were the following: Fw: 5′-CAAGGGCCAGGTCACCAA-3′ Rv: 5′-CCCCCAACCCATCTTCGT-3′; Fw: 5′-[…]-3′ Rv: 5′-[…]-3′; Fw: 5′-GGCTCCTGGCAAAAGGTCA-3′ Rv: 5′-[…]-3′; Fw: 5′-[…]-3′ Rv: 5′-[…]-3′; Fw: 5′-[…]-3′ Rv: 5′-GTCTCCCCGCTCATTGCTC-3′; Fw: 5′-[…]-3′ Rv: 5′-[…]-3′; Fw: 5′-[…]-3′ Rv: 5′-[…]-3′."}, "U2OS cells": {"system": "U2OS cells", "assay": "Scratch assay (motility), U2OS", "format": "cell-based, human", "conditions": "20 hours", "protocol": "as §1"}, "[3]": {"system": "Wnt transcriptional activity in HT-1080 cells", "assay": "TCF Wnt reporter assay in HT-1080", "format": "cell-based, human", "conditions": "HT-1080, data not shown", "description": "(§3) The generation of TCF-Luciferase and TA-Renilla reporter plasmids as well as IC50 determination and calculation was reported previously. Human AXIN1 and WNT3A cDNAs were purchased from Origene as “transfection ready” plasmids. Dominant negative TCF4 cDNA was purchased from Upstate. Luciferase reporter of the nucleolin promoter (pNucL14) and FLAG-c-Myc expressing vector were from B. Amati. Luciferase reporter of the Hes5 promoter and Notch1-IC expressing vector were from I. Screpanti. Lentiviral vectors for inducible dominant negative TCF4 (rLV-EF1-tTS, rLV-EF1-rtTA and rLV-TRE-CMV-HA-TCF4DN) were purchased from Vectalys.\n(§4) Transfections were carried out using Lipofectamine 2000 (Invitrogen) according to the manufacturer’s instructions. Lentiviral expression of TCF-Luc, TA-Renilla, and the inducible dominant negative TCF4, were carried out following Vectalys instructions. For reporter assays, luciferase activities were performed as described previously."}, "[4]": {"system": "Wnt target gene mRNA in HT-1080 cells", "assay": "Quantitative RT-PCR of Wnt target genes in HT-1080", "format": "cell-based, human", "conditions": "HT-1080, overnight, 10 µmol/L", "protocol": "as §2"}, "[5]": {"system": "Myc transcriptional activation in HEK293 cells", "assay": "Nucleolin promoter (pNucL14) luciferase reporter, HEK293", "format": "cell-based", "conditions": "HEK293, pNucL14 ± FLAG-c-Myc", "description": "as §3, §4"}, "[6]": {"conditions": "30 mg/kg BID PO 7 days, data not shown"}}}
{"smiles": "COCC(=O)N1CCN(C(=O)C2CCC(Cn3c(=O)c4cc(OC)ccc4n(C)c3=O)CC2)CC1", "note": "(centres unmarked) [SEN461]", "values": [{"measurement": "AXIN2 mRNA in HT-1080 xenograft tumors", "setting": "[1]; [6]", "result": "without any significant effect"}, {"measurement": "CDC25A mRNA in HT-1080 xenograft tumors", "setting": "[1]; [6]", "result": "without any significant effect"}, {"measurement": "c-MYC mRNA in HT-1080 xenograft tumors", "setting": "[1]; 30 mg/kg BID PO 7 days, 1, 4, 8 h, vs control animals", "result": "down-modulation of c-MYC"}, {"measurement": "VEGF-A mRNA in HT-1080 xenograft tumors", "setting": "[1]; 30 mg/kg BID PO, 1 h, treated versus control", "result": "did not show any difference"}, {"measurement": "tubule-formation activity", "setting": "HUVEC cells", "result": "did not show any effect"}, {"measurement": "cellular motility (two-dimensional scratch assay)", "setting": "HT-1080 cells", "result": "neither U2OS nor HT-1080 cells showed inhibition of motility"}, {"measurement": "CSNK1G mRNA", "setting": "[2]; 10 µmol/L", "result": "down-modulation"}, {"measurement": "DVL2 mRNA", "setting": "[2]; 10 µmol/L", "result": "down-modulation"}, {"measurement": "FZD4 mRNA", "setting": "[2]; 10 µmol/L", "result": "down-modulation"}, {"measurement": "AXIN2 mRNA", "setting": "[2]; 10 µmol/L, 2 or 24 h", "result": "comparable down-regulation"}, {"measurement": "CDC25A mRNA", "setting": "[2]; 10 µmol/L, 2 or 24 h", "result": "comparable down-regulation"}, {"measurement": "AXIN2 mRNA induced by Wnt3a CM", "setting": "[2]; Wnt3a CM stimulation", "result": "inhibited"}, {"measurement": "c-MYC mRNA", "setting": "[2]; overnight treatment", "result": "unaffected"}, {"measurement": "cellular motility (two-dimensional scratch assay)", "setting": "U2OS cells", "result": "neither U2OS nor HT-1080 cells showed inhibition of motility"}, {"measurement": "Wnt transcriptional modulation (TCF reporter)", "setting": "[3]", "result": "did not find any Wnt transcriptional modulation"}, {"measurement": "c-MYC mRNA", "setting": "[4]", "result": "significant down-modulation"}, {"measurement": "Myc mediated activation / basal activity of nucleolin reporter", "setting": "[5]", "result": "did not affect"}]}
